In patent publication US12655153B2, “Solid forms of a HBV core protein allosteric modifier” (Hoffmann-La Roche Inc., priority 2019, dated 2026):
In brackets after ≈: the same amount, converted by molar mass. Entries after “also recorded” stand apart in the source; their conditions may differ. Blank lines part the entries; values can stand above or below the molecule they belong to.

Tests used:
[1] = Conversion of solid form in SGF; type: physicochemical
Source text: (§1) Therefore, sodium salt Form J is suitable to be formulated as sustained-release oral formulation. […] Therefore, sodium salt Form J could be developed as enteric release formulations to avoid conversion in SGF and achieve higher solubility in intestinal environment for better absorption.

[2] = Apparent solubility in FaSSIF over time; type: physicochemical
Source text: as §1

[3] = Apparent solubility study in pH buffers (50 mM), 25° C., 24 hours, HPLC; type: physicochemical; conditions: for Solubility: 25° C.; for Final pH: after 24 hours; for Solubility compared with Form A: pH7 and pH9
Description: Apparent solubility was determined by suspending 5 mg of compound (I) in different bio-relevant media including pH buffers (50 mM). The suspensions were equilibrated at 25° C. for 24 hours. The suspensions were then filtered through a 0.22 μm PVDF filter into a 2-mL HPLC vial. The quantification of the filtrate was conducted by HPLC with reference to a standard solution.

[4] = Physical stability of solid forms (general statements, accelerated and long term stability testing); type: physicochemical; conditions: conditions not stated
Source text: Developing novel forms of compound (I) with good processability or acceptable aqueous solubility is one of the objectives of current invention. Some novel solid forms enhance the developability of compound (I) fundamentally. The physical stability of drug substances is an integral part of the systematic approach to the stability evaluation of pharmaceuticals due to its potential impacts on drug chemical stability performance and safety. The greater the stability is, the longer the shelf life could be. Therefore, the accelerated and long term stability testing used in this invention could be used to predict shelf lives.

In vivo PK study = assay: In vivo PK study
Source text: as §1

[5] = Stability of solid forms, stability chamber 40° C. and 75%-RH, XRPD after 1 month; type: physicochemical; conditions: 40° C./75%-RH
Description: 40 mg of compound (I) in different solid forms were stored in a stability chamber with temperature and humidity controlled at 40° C. and 75%-RH, respectively. After 1 month, the samples were analyzed by XRPD to check their solid form and compared with their initial solid form.

[6] = Apparent solubility in purified water, 25° C., 24 hours, HPLC, residue by XRPD; type: physicochemical; conditions: for Solubility / Final pH / XRPD of residue: purified water; for Solubility: 25° C., 24 hours; for Final pH / XRPD of residue: after 24 hours
Description: Apparent solubility in water was determined by suspending 5 mg of compound (I) in purified water. The suspensions were equilibrated at 25° C. for 24 hours. The suspensions were then filtered through a 0.22 μm PVDF filter into a 2-mL HPLC vial. The quantitation of the filtrate was conducted by HPLC with reference to a standard solution. The solids were analyzed by XRPD.

[7] = Stability of solid forms, stability chamber 25° C. and 60%-RH, XRPD after 1 month; type: physicochemical; conditions: 25° C./60%-RH
Description: 20 mg of compound (I) in different solid forms were stored in a stability chamber with temperature and humidity controlled at 25° C. and 60%-RH. After 1 month, the samples were analyzed by XRPD to check their solid form and compared with their initial solid form.

[8] = listed as Example 3, Form A of compound (I)
[9] = listed as Example 16, Form H of compound (I)
[10] = listed as Example 1, Form D of compound (I)

Solid form conversion [1]: converted to HCl salt immediately | Apparent solubility in FaSSIF [2]: increased with time | Solubility ([3]; pH 1 buffer, 24 hours, listed as Example 15, sodium salt Form J of compound (I)): 1510 µg/mL | Final pH ([3]; pH 1 buffer, listed as Example 15, sodium salt Form J of compound (I)): 1.12 | Solubility ([3]; pH 3 buffer, 24 hours, listed as Example 15, sodium salt Form J of compound (I)): 16 µg/mL | Final pH ([3]; pH 3 buffer, listed as Example 15, sodium salt Form J of compound (I)): 3.53 | Solubility ([3]; pH 5 buffer, 24 hours, listed as Example 15, sodium salt Form J of compound (I)): 2.8 µg/mL | Final pH ([3]; pH 5 buffer, listed as Example 15, sodium salt Form J of compound (I)): 5.22 | Solubility ([3]; pH 7 buffer, 24 hours, listed as Example 15, sodium salt Form J of compound (I)): 690 µg/mL | Final pH ([3]; pH 7 buffer, listed as Example 15, sodium salt Form J of compound (I)): 7.34 | Solubility ([3]; pH 9 buffer, 24 hours, listed as Example 15, sodium salt Form J of compound (I)): >10000 µg/mL | Final pH ([3]; pH 9 buffer, listed as Example 15, sodium salt Form J of compound (I)): 8.80 | Physical / solid state stability ([4]; listed as sodium salt Form J): improved stability compared with Form D | Physical stability (solid form by XRPD) ([5]; listed as Example 15, sodium salt Form J of compound (I)): no solid form change
Compound: CCOC(=O)C1=C(CN2CCN3C(=O)N(CC(C)(C)C(=O)O)C[C@@H]3C2)NC(c2nccs2)=N[C@H]1c1cccc(F)c1C [Form J, 3-[(8aS)-7-[[(4S)-5-ethoxycarbonyl-4-(3-fluoro-2-methyl-phenyl)-2-thiazol-2-yl-1,4-dihydropyrimidin-6-yl]methyl]-3-oxo-5,6,8,8a-tetrahydro-1H-imidazo[1,5-a]pyrazin-2-yl]-2,2-dimethyl-propanoic acid]
Solubility compared with other crystal forms of the parent compound (I) [3]: improved solubility compared with some of other crystal forms | Solubility compared with Form A [3]: higher solubility than Form A at pH7 and pH9 | Absorption rate to reach Cmax (In vivo PK study): much slower absorption rate to reach Cmax | Solid form stability compared with Form D [5]: better solid form stability than the original Form D

solubility at 24 h ([3]; pH 1 buffer (50 mM), 25 °C, pH 1, aqueous buffer, thermodynamic from solid, pH 1 buffer, 24 hours): 940 µg/mL (≈ 1570 µM) | Final pH ([3]; pH 1 buffer, listed as Example 3, Form A of compound (I)): 1.05 | Solubility ([3]; pH 3 buffer, 24 hours, listed as Example 3, Form A of compound (I)): 66 µg/mL (≈ 110 µM) | Final pH ([3]; pH 3 buffer, listed as Example 3, Form A of compound (I)): 2.97 | Solubility ([3]; pH 5 buffer, 24 hours, listed as Example 3, Form A of compound (I)): 4 µg/mL (≈ 6.68 µM) | Final pH ([3]; pH 5 buffer, listed as Example 3, Form A of compound (I)): 4.99 | Solubility ([3]; pH 7 buffer, 24 hours, listed as Example 3, Form A of compound (I)): 72 µg/mL (≈ 120 µM) | Final pH ([3]; pH 7 buffer, listed as Example 3, Form A of compound (I)): 6.98 | Solubility ([3]; pH 9 buffer, 24 hours, listed as Example 3, Form A of compound (I)): 4820 µg/mL (≈ 8050 µM) | Final pH ([3]; pH 9 buffer, listed as Example 3, Form A of compound (I)): 8.46 | Solubility [6, 8]: 50 µg/mL (≈ 83.5 µM) | Final pH [6, 8]: 6.97 | XRPD of residue [6, 8]: Form A
Compound: CCOC(=O)C1=C(CN2CCN3C(=O)N(CC(C)(C)C(=O)O)C[C@@H]3C2)NC(c2nccs2)=N[C@H]1c1cccc(F)c1C [Form A, 3-[(8aS)-7-[[(4S)-5-ethoxycarbonyl-4-(3-fluoro-2-methyl-phenyl)-2-thiazol-2-yl-1,4-dihydropyrimidin-6-yl]methyl]-3-oxo-5,6,8,8a-tetrahydro-1H-imidazo[1,5-a]pyrazin-2-yl]-2,2-dimethyl-propanoic acid]

Solubility ([3]; pH 1 buffer, 24 hours, listed as Example 16, Form H of compound (I)): 1581 µg/mL (≈ 2640 µM) | Final pH ([3]; pH 1 buffer, listed as Example 16, Form H of compound (I)): 1.08 | Solubility ([3]; pH 3 buffer, 24 hours, listed as Example 16, Form H of compound (I)): 56 µg/mL (≈ 93.5 µM) | Final pH ([3]; pH 3 buffer, listed as Example 16, Form H of compound (I)): 3.01 | Solubility ([3]; pH 5 buffer, 24 hours, listed as Example 16, Form H of compound (I)): 6 µg/mL (≈ 10 µM) | Final pH ([3]; pH 5 buffer, listed as Example 16, Form H of compound (I)): 5.03 | Solubility ([3]; pH 7 buffer, 24 hours, listed as Example 16, Form H of compound (I)): 244 µg/mL (≈ 408 µM) | Final pH ([3]; pH 7 buffer, listed as Example 16, Form H of compound (I)): 6.97 | Solubility ([3]; pH 9 buffer, 24 hours, listed as Example 16, Form H of compound (I)): >10000 µg/mL | Final pH ([3]; pH 9 buffer, listed as Example 16, Form H of compound (I)): 8.90 | Solubility [6, 9]: 453 µg/mL (≈ 757 µM) | Final pH [6, 9]: 7.35 | XRPD of residue [6, 9]: Form H | Physical stability (solid form by XRPD) [7, 9]: no solid form change
Compound: CCOC(=O)C1=C(CN2CCN3C(=O)N(CC(C)(C)C(=O)O)C[C@@H]3C2)NC(c2nccs2)=N[C@H]1c1cccc(F)c1C [Form H, 3-[(8aS)-7-[[(4S)-5-ethoxycarbonyl-4-(3-fluoro-2-methyl-phenyl)-2-thiazol-2-yl-1,4-dihydropyrimidin-6-yl]methyl]-3-oxo-5,6,8,8a-tetrahydro-1H-imidazo[1,5-a]pyrazin-2-yl]-2,2-dimethyl-propanoic acid]
Solubility compared with Form A [3]: higher solubility than Form A at pH7 and pH9 | Water solubility compared with Form A ([6]; water): unexpected higher water solubility than Form A; also recorded: significant higher water solubility than the anhydrate Form A | Physical / solid state stability [4]: improved stability compared with Form D; also recorded: acceptable solid state stability | Stability compared with Form D [7]: better stability than the original Form D

Physical / solid state stability [4]: physically unstable | Physical stability (solid form by XRPD) [7, 10]: solid form change | Physical stability (solid form by XRPD) [5, 10]: solid form change
Compound: CCOC(=O)C1=C(CN2CCN3C(=O)N(CC(C)(C)C(=O)O)C[C@@H]3C2)NC(c2nccs2)=N[C@H]1c1cccc(F)c1C [Form D, 3-[(8aS)-7-[[(4S)-5-ethoxycarbonyl-4-(3-fluoro-2-methyl-phenyl)-2-thiazol-2-yl-1,4-dihydropyrimidin-6-yl]methyl]-3-oxo-5,6,8,8a-tetrahydro-1H-imidazo[1,5-a]pyrazin-2-yl]-2,2-dimethyl-propanoic acid]
Solid form stability compared with Form D [5]: better solid form stability than the original Form D

Compound: CCOC(=O)C1=C(CN2CCN3C(=O)N(CC(C)(C)C(=O)O)C[C@@H]3C2)NC(c2nccs2)=N[C@H]1c1cccc(F)c1C [Form Amorphous, 3-[(8aS)-7-[[(4S)-5-ethoxycarbonyl-4-(3-fluoro-2-methyl-phenyl)-2-thiazol-2-yl-1,4-dihydropyrimidin-6-yl]methyl]-3-oxo-5,6,8,8a-tetrahydro-1H-imidazo[1,5-a]pyrazin-2-yl]-2,2-dimethyl-propanoic acid]
Physical / solid state stability [4]: significantly improved stability compared with Form D

Solubility ([3]; pH 1 buffer, 24 hours, listed as Example 24, potassium salt Form Q of compound (I)): 1560 µg/mL | Final pH ([3]; pH 1 buffer, listed as Example 24, potassium salt Form Q of compound (I)): 1.1 | Final pH ([3]; pH 3 buffer, listed as Example 24, potassium salt Form Q of compound (I)): 3.49 | Final pH ([3]; pH 5 buffer, listed as Example 24, potassium salt Form Q of compound (I)): 5.17 | Solubility ([3]; pH 7 buffer, 24 hours, listed as Example 24, potassium salt Form Q of compound (I)): 3580 µg/mL | Final pH ([3]; pH 7 buffer, listed as Example 24, potassium salt Form Q of compound (I)): 6.97 | Solubility ([3]; pH 9 buffer, 24 hours, listed as Example 24, potassium salt Form Q of compound (I)): >10000 µg/mL | Final pH ([3]; pH 9 buffer, listed as Example 24, potassium salt Form Q of compound (I)): 8.71
Compound: CCOC(=O)C1=C(CN2CCN3C(=O)N(CC(C)(C)C(=O)O)C[C@@H]3C2)NC(c2nccs2)=N[C@H]1c1cccc(F)c1C [Form Q, 3-[(8aS)-7-[[(4S)-5-ethoxycarbonyl-4-(3-fluoro-2-methyl-phenyl)-2-thiazol-2-yl-1,4-dihydropyrimidin-6-yl]methyl]-3-oxo-5,6,8,8a-tetrahydro-1H-imidazo[1,5-a]pyrazin-2-yl]-2,2-dimethyl-propanoic acid]
